Data taken from patent US9642869B2, “Boronic acid derivatives and therapeutic uses thereof” (Rempex Pharmaceuticals, Inc., priority 2013, dated 2017).

Tests used:
ECL1002 [1] = assay type: cell-based; conditions: minimum BLI concentration inhibiting growth with tigemonam at 4 μg/mL
SHV-5 ec308 [2] = assay type: cell-based; conditions: minimum BLI concentration inhibiting growth with tigemonam at 4 μg/mL
CTX-M-14 KP1005 = assay type: cell-based
SHV-12 = SHV-12 (Klebsiella pneumoniae, UniProt P0AD64, E235K/G234S/L31Q); experiment: Inhibition of nitrocefin cleavage by purified enzyme (Ki); assay type: biochemical; conditions: nitrocefin reporter substrate, 10 min preincubation; read-out: Ki (SHV-12, NCF)
Method: Purified enzymes were mixed with various concentrations of inhibitors in reaction buffer and incubated for 10 min at room temperature. Nitrocefin was added and substrate cleavage profiles were recorded at 490 nm every 10 sec for 10 min.

CTX-M-15 KP1009 = assay type: cell-based
KPC-2 KP1004 = experiment: Aztreonam potentiation (MPC@4); assay type: cell-based; conditions: minimum BLI concentration inhibiting growth with 4 μg/mL aztreonam
SHV-5 ec308 [3] = experiment: Aztreonam potentiation (MPC@4); assay type: cell-based; conditions: minimum BLI concentration inhibiting growth with 4 μg/mL aztreonam
ECL1002 [4] = experiment: Aztreonam potentiation (MPC@4); assay type: cell-based; conditions: minimum BLI concentration inhibiting growth with 4 μg/mL aztreonam
OXA-48 KP1086 = experiment: Biapenem potentiation (MPC@1); assay type: cell-based; conditions: minimum BLI concentration inhibiting growth with 1 μg/mL biapenem
Method: (§1) Biapenem was present in the test medium at 1 μg/mL. […] Table 3 summarizes the BLI potency of biapenem potentiation (MPC@1) for two strains overexpressing class A (KPC) and class D (OXA-48) carbapenemases. Biapenem MIC for each strain is also shown.

KP1004 KPC-2 = experiment: Biapenem potentiation (MPC@1); assay type: cell-based; conditions: minimum BLI concentration inhibiting growth with 1 μg/mL biapenem
Method: as §1

SHV-12, sequence (P0AD64 22-286 L31Q/G234S/E235K): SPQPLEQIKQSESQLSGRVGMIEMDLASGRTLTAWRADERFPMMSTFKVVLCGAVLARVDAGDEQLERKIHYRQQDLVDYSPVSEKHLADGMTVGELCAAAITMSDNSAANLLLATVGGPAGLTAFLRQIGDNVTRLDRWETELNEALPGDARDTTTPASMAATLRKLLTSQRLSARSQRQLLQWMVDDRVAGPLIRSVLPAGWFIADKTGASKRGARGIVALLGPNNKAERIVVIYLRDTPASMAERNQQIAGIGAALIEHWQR

Structure (SMILES)	TIG MPC4 ECL1002 (ECL1002 [1])	TIG MPC4 SHV-5 ec308 (SHV-5 ec308 [2])	TIG MPC4 CTX-M-14 KP1005 (CTX-M-14 KP1005)	Ki (SHV-12) [nM]	TIG MPC4 CTX-M-15 KP1009 (CTX-M-15 KP1009)	AZT MPC4 KPC-2 KP1004 (KPC-2 KP1004)	AZT MPC4 SHV-5 ec308 (SHV-5 ec308 [3])	AZT MPC4 ECL1002 (ECL1002 [4])	BPM MPC1 OXA-48 KP1086 (OXA-48 KP1086)	BPM MPC1 KP1004 KPC-2 (KP1004 KPC-2)
NC(=O)C(=O)N[C@H]1Cc2cccc(C(=O)O)c2OB1O [Compound 17, (R)-3-(2-amino-2-oxoacetamido)-2-hydroxy-3,4-dihydro-2H-benzo[e][1,2]oxaborinine-8-carboxylic acid]	Y (MIC of 1 μg/mL to 10 μg/mL)	Y (MIC of 1 μg/mL to 10 μg/mL)	Z (key: X: MIC of less than 1 μg/mL; Y: MIC of 1 μg/mL to 10 μg/mL; Z: MIC of greater than 10 μg/mL)	1 to 10	Y (key: X: MIC of less than 1 μg/mL; Y: MIC of 1 μg/mL to 10 μg/mL; Z: MIC of greater than 10 μg/mL)	Y (MIC of 1 μg/mL to 10 μg/mL)	X (MIC of less than 1 μg/mL)	Y (MIC of 1 μg/mL to 10 μg/mL)	Y (MIC of 1 μg/mL to 10 μg/mL)	X (MIC of less than 1 μg/mL)
Cn1nnnc1SCC(=O)N[C@H]1Cc2cccc(C(=O)O)c2OB1O [Compound 2, (R)-2-hydroxy-3-(2-(1-methyl-1H-tetrazol-5-ylthio)acetamido)-3,4-dihydro-2H-benzo[e][1,2]oxaborinine-8-carboxylic acid]	X (MIC of less than 1 μg/mL)	X (MIC of less than 1 μg/mL)	X (key: X: MIC of less than 1 μg/mL; Y: MIC of 1 μg/mL to 10 μg/mL; Z: MIC of greater than 10 μg/mL)	< 1	Y (key: X: MIC of less than 1 μg/mL; Y: MIC of 1 μg/mL to 10 μg/mL; Z: MIC of greater than 10 μg/mL)	Y (MIC of 1 μg/mL to 10 μg/mL)	X (MIC of less than 1 μg/mL)	Y (MIC of 1 μg/mL to 10 μg/mL)	Y (MIC of 1 μg/mL to 10 μg/mL)	X (MIC of less than 1 μg/mL)
CN(C)C(=O)C(=O)N[C@H]1Cc2cccc(C(=O)O)c2OB1O [Compound 9, (R)-3-(2-(dimethylamino)-2-oxoacetamido)-2-hydroxy-3,4-dihydro-2H-benzo[e][1,2]oxaborinine-8-carboxylic acid]	Y (MIC of 1 μg/mL to 10 μg/mL)	Y (MIC of 1 μg/mL to 10 μg/mL)	Y (key: X: MIC of less than 1 μg/mL; Y: MIC of 1 μg/mL to 10 μg/mL; Z: MIC of greater than 10 μg/mL)	–	Y (key: X: MIC of less than 1 μg/mL; Y: MIC of 1 μg/mL to 10 μg/mL; Z: MIC of greater than 10 μg/mL)	Y (MIC of 1 μg/mL to 10 μg/mL)	X (MIC of less than 1 μg/mL)	Y (MIC of 1 μg/mL to 10 μg/mL)	Z (MIC of greater than 10 μg/mL)	X (MIC of less than 1 μg/mL)
O=C(N[C@H]1Cc2cccc(C(=O)O)c2OB1O)c1cncc(F)c1 [Compound 14, (R)-3-(5-fluoronicotinamido)-2-hydroxy-3,4-dihydro-2H-benzo[e][1,2]oxaborinine-8-carboxylic acid]	Y (MIC of 1 μg/mL to 10 μg/mL)	Y (MIC of 1 μg/mL to 10 μg/mL)	Y (key: X: MIC of less than 1 μg/mL; Y: MIC of 1 μg/mL to 10 μg/mL; Z: MIC of greater than 10 μg/mL)	< 1	Y (key: X: MIC of less than 1 μg/mL; Y: MIC of 1 μg/mL to 10 μg/mL; Z: MIC of greater than 10 μg/mL)	Y (MIC of 1 μg/mL to 10 μg/mL)	Y (MIC of 1 μg/mL to 10 μg/mL)	Y (MIC of 1 μg/mL to 10 μg/mL)	Y (MIC of 1 μg/mL to 10 μg/mL)	X (MIC of less than 1 μg/mL)
O=C(N[C@H]1Cc2cccc(C(=O)O)c2OB1O)c1cncs1 [Compound 15, (R)-2-hydroxy-3-(thiazole-5-carboxamido)-3,4-dihydro-2H-benzo[e][1,2]oxaborinine-8-carboxylic acid]	Y (MIC of 1 μg/mL to 10 μg/mL)	Y (MIC of 1 μg/mL to 10 μg/mL)	Y (key: X: MIC of less than 1 μg/mL; Y: MIC of 1 μg/mL to 10 μg/mL; Z: MIC of greater than 10 μg/mL)	< 1	Y (key: X: MIC of less than 1 μg/mL; Y: MIC of 1 μg/mL to 10 μg/mL; Z: MIC of greater than 10 μg/mL)	Y (MIC of 1 μg/mL to 10 μg/mL)	X (MIC of less than 1 μg/mL)	Y (MIC of 1 μg/mL to 10 μg/mL)	Y (MIC of 1 μg/mL to 10 μg/mL)	X (MIC of less than 1 μg/mL)
NC(=O)N[C@H]1Cc2cccc(C(=O)O)c2OB1O [Compound 6, (R)-2-hydroxy-3-ureido-3,4-dihydro-2H-benzo[e][1,2]oxaborinine-8-carboxylic acid]	Y (MIC of 1 μg/mL to 10 μg/mL)	Z (MIC of greater than 10 μg/mL)	Z (key: X: MIC of less than 1 μg/mL; Y: MIC of 1 μg/mL to 10 μg/mL; Z: MIC of greater than 10 μg/mL)	1 to 10	Y (key: X: MIC of less than 1 μg/mL; Y: MIC of 1 μg/mL to 10 μg/mL; Z: MIC of greater than 10 μg/mL)	X (MIC of less than 1 μg/mL)	Y (MIC of 1 μg/mL to 10 μg/mL)	Z (MIC of greater than 10 μg/mL)	Y (MIC of 1 μg/mL to 10 μg/mL)	X (MIC of less than 1 μg/mL)
O=C(N[C@H]1Cc2cccc(C(=O)O)c2OB1O)c1cncnc1 [Compound 18, (R)-2-hydroxy-3-(pyrimidine-5-carboxamido)-3,4-dihydro-2H-benzo[e][1,2]oxaborinine-8-carboxylic acid]	Y (MIC of 1 μg/mL to 10 μg/mL)	Y (MIC of 1 μg/mL to 10 μg/mL)	Y (key: X: MIC of less than 1 μg/mL; Y: MIC of 1 μg/mL to 10 μg/mL; Z: MIC of greater than 10 μg/mL)	< 1	Y (key: X: MIC of less than 1 μg/mL; Y: MIC of 1 μg/mL to 10 μg/mL; Z: MIC of greater than 10 μg/mL)	Y (MIC of 1 μg/mL to 10 μg/mL)	Y (MIC of 1 μg/mL to 10 μg/mL)	Y (MIC of 1 μg/mL to 10 μg/mL)	Y (MIC of 1 μg/mL to 10 μg/mL)	Y (MIC of 1 μg/mL to 10 μg/mL)
CSC(=O)N[C@H]1Cc2cccc(C(=O)O)c2OB1O [Compound 11, (R)-2-hydroxy-3-(methylthiocarbonylamino)-3,4-dihydro-2H-benzo[e][1,2]oxaborinine-8-carboxylic acid]	Y (MIC of 1 μg/mL to 10 μg/mL)	Y (MIC of 1 μg/mL to 10 μg/mL)	Y (key: X: MIC of less than 1 μg/mL; Y: MIC of 1 μg/mL to 10 μg/mL; Z: MIC of greater than 10 μg/mL)	< 1	Y (key: X: MIC of less than 1 μg/mL; Y: MIC of 1 μg/mL to 10 μg/mL; Z: MIC of greater than 10 μg/mL)	Y (MIC of 1 μg/mL to 10 μg/mL)	X (MIC of less than 1 μg/mL)	Y (MIC of 1 μg/mL to 10 μg/mL)	Y (MIC of 1 μg/mL to 10 μg/mL)	X (MIC of less than 1 μg/mL)
CN(C)C(=O)CC(=O)N[C@H]1Cc2cccc(C(=O)O)c2OB1O [Compound 10, (R)-3-(3-(dimethylamino)-3-oxopropanamido)-2-hydroxy-3,4-dihydro-2H-benzo[e][1,2]oxaborinine-8-carboxylic acid]	X (MIC of less than 1 μg/mL)	Y (MIC of 1 μg/mL to 10 μg/mL)	Y (key: X: MIC of less than 1 μg/mL; Y: MIC of 1 μg/mL to 10 μg/mL; Z: MIC of greater than 10 μg/mL)	< 1	X (key: X: MIC of less than 1 μg/mL; Y: MIC of 1 μg/mL to 10 μg/mL; Z: MIC of greater than 10 μg/mL)	X (MIC of less than 1 μg/mL)	Y (MIC of 1 μg/mL to 10 μg/mL)	Y (MIC of 1 μg/mL to 10 μg/mL)	Y (MIC of 1 μg/mL to 10 μg/mL)	X (MIC of less than 1 μg/mL)
O=C(COCc1ccccc1)N[C@H]1Cc2cccc(C(=O)O)c2OB1O [CPD B, reference compound]	Y (MIC of 1 μg/mL to 10 μg/mL)	Y (MIC of 1 μg/mL to 10 μg/mL)	Z (key: X: MIC of less than 1 μg/mL; Y: MIC of 1 μg/mL to 10 μg/mL; Z: MIC of greater than 10 μg/mL)	< 1	Z (key: X: MIC of less than 1 μg/mL; Y: MIC of 1 μg/mL to 10 μg/mL; Z: MIC of greater than 10 μg/mL)	Z (MIC of greater than 10 μg/mL)	Y (MIC of 1 μg/mL to 10 μg/mL)	Z (MIC of greater than 10 μg/mL)	Z (MIC of greater than 10 μg/mL)	X (MIC of less than 1 μg/mL)
